How the values were obtained:
Details in all cases: 72 h
U2OS [1] = assay: cell viability relative to DMSO; higher = less toxic
Caco-2 [2] = assay: as above
HepG2 [3] = assay: as above
Calu-3 [4] = assay: as above
Vero E6 [5] = assay: as above
U2OS [6] = assay: drug sensitivity score (DSS) for viability; higher = more toxic; extreme values may be limits of the assay
Caco-2 [7] = assay: as above
HepG2 [8] = assay: as above
Calu-3 [9] = assay: as above
Vero E6 [10] = assay: as above
U2OS [11] = assay: relative viability EC50 (midpoint between 100% and the lowest measured viability); higher = less toxic
Caco-2 [12] = assay: as above
HepG2 [13] = assay: as above
Calu-3 [14] = assay: as above
Vero E6 [15] = assay: as above

Row | SMILES | cell viability (U2OS [1]; 1 nM) [%] | cell viability (U2OS [1]; 10 nM) [%] | cell viability (U2OS [1]; 100 nM) [%] | cell viability (U2OS [1]; 1000 nM) [%] | cell viability (U2OS [1]; 10000 nM) [%] | cell viability (Caco-2 [2]; 1 nM) [%] | cell viability (Caco-2 [2]; 10 nM) [%] | cell viability (Caco-2 [2]; 100 nM) [%] | cell viability (Caco-2 [2]; 1000 nM) [%] | cell viability (Caco-2 [2]; 10000 nM) [%] | cell viability (HepG2 [3]; 1 nM) [%] | cell viability (HepG2 [3]; 10 nM) [%] | cell viability (HepG2 [3]; 100 nM) [%] | cell viability (HepG2 [3]; 1000 nM) [%] | cell viability (HepG2 [3]; 10000 nM) [%] | cell viability (Calu-3 [4]; 1 nM) [%] | cell viability (Calu-3 [4]; 10 nM) [%] | cell viability (Calu-3 [4]; 100 nM) [%] | cell viability (Calu-3 [4]; 1000 nM) [%] | cell viability (Calu-3 [4]; 10000 nM) [%] | cell viability (Vero E6 [5]; 1 nM) [%] | cell viability (Vero E6 [5]; 10 nM) [%] | cell viability (Vero E6 [5]; 100 nM) [%] | cell viability (Vero E6 [5]; 1000 nM) [%] | cell viability (Vero E6 [5]; 10000 nM) [%] | drug sensitivity score (U2OS [6]) | drug sensitivity score (Caco-2 [7]) | drug sensitivity score (HepG2 [8]) | drug sensitivity score (Calu-3 [9]) | drug sensitivity score (Vero E6 [10]) | relative viability EC50 (U2OS [11]) [µM] | relative viability EC50 (Caco-2 [12]) [µM] | relative viability EC50 (HepG2 [13]) [µM] | relative viability EC50 (Calu-3 [14]) [µM] | relative viability EC50 (Vero E6 [15]) [µM]
1 | O=[N+]([O-])c1ccc2c(c1)S(=O)(=O)C=C2 [stattic] | 99.1 | 95.6 | 98.6 | 94 | 0.6 | 97.6 | 90.3 | 99 | 91.2 | 16.1 | 96.3 | 95.7 | 107 | 102 | -0.2 | 107 | 95.2 | 97.7 | 117 | 27.3 | 95.8 | 99 | 99.1 | 95.3 | 2.5 | 6.4 | 6.1 | 5.4 | 3.2 | 6.1 | 2.69 | 2.3 | 3.29 | 3.99 | 2.79
2 | CC(C)(C)C(=O)OCOC(=O)[C@@H]1N2C(=O)C[C@H]2S(=O)(=O)C1(C)C [sulbactam-pivoxil] | 95.7 | 96.6 | 94.9 | 98.6 | 95.3 | 99.3 | 90.6 | 93.5 | 98.6 | 101 | 98.2 | 100 | 96.2 | 105 | 103 | 98.5 | 97.4 | 109 | 108 | 101 | 99.3 | 104 | 100 | 99.1 | 99.2 | 0 | 0 | 0 | 0 | 0 | > 10 | > 10 | > 10 | > 10 | > 10
3 | Cc1noc(NS(=O)(=O)c2ccc(N)cc2)c1C [sulfafurazole] | 100 | 96.5 | 99.5 | 96 | 101 | 95.7 | 94.2 | 96.6 | 94 | 103 | 93 | 94.3 | 90.6 | 102 | 100 | 96.2 | 92.7 | 105 | 107 | 98.1 | 101 | 96.6 | 98.6 | 99.2 | 98.7 | 0 | 0 | 0 | 0 | 0 | > 10 | > 10 | > 10 | > 10 | > 10

— the supplement of paper PMC13380429
